What was measured:
[1] = GA glucuronidation kinetics in rat liver microsomes; type: in vitro ADME, Sprague-Dawley rats; conditions: for microsomal CLint: rat liver microsomes
[2] = GA glucuronidation kinetics in rat intestinal microsomes; type: in vitro ADME, Sprague-Dawley rats
[3] = GA glucuronidation kinetics in beagle dog liver microsomes; type: in vitro ADME, beagle dogs; conditions: DLM; for microsomal CLint / Km at 30 min: beagle, dog; for microsomal CLint: dog liver microsomes; for Km at 30 min: liver microsomes, pH 7.4, Km (KS), Michaelis–Menten
[4] = GA glucuronidation kinetics in cynomolgus monkey liver microsomes; type: in vitro ADME, cynomolgus monkeys; conditions: CyLM; for Km at 60 min: cynomolgus monkey, liver microsomes, pH 7.4, Km (KS), Michaelis–Menten
[5] = target: T1, UGT1A1 (Homo sapiens, UniProt P22309); assay: GA glucuronidation kinetics by recombinant UGT1A1; type: in vitro ADME; conditions: recombinant human UGT1A1, pH 7.4, Clint
T1 sequence (P22309 26-533): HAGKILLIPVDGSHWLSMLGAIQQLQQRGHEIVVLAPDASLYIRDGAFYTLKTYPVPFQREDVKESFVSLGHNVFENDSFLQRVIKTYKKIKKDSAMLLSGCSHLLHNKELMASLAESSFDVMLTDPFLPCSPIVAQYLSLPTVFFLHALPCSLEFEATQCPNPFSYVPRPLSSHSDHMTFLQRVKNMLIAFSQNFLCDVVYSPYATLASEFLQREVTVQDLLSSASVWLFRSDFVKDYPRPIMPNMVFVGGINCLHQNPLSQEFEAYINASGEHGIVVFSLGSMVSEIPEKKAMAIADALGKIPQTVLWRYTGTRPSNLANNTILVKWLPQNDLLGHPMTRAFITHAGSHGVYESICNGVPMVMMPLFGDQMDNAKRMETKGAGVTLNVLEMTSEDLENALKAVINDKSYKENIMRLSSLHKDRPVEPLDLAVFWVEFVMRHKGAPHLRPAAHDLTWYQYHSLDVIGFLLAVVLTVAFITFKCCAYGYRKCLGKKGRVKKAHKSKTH

[6] = target: T2, UGT1A3 (Homo sapiens, UniProt P35503); assay: GA glucuronidation kinetics by recombinant UGT1A3; type: in vitro ADME; conditions: recombinant human UGT1A3, pH 7.4
T2 sequence (P35503 29-534): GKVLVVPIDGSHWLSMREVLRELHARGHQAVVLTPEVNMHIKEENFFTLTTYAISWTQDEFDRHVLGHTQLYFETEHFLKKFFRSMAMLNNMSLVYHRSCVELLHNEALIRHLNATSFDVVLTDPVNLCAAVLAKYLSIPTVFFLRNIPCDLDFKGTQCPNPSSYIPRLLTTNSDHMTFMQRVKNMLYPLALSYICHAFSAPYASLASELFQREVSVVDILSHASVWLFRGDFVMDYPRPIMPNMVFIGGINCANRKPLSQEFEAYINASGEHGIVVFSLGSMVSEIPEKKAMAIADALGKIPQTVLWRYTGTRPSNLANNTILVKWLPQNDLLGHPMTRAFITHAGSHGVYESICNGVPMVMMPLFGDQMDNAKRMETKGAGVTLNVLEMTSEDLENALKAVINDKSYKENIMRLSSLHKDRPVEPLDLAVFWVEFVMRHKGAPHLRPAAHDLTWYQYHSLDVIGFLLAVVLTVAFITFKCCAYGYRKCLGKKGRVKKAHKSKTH

[7] = target: T3, recombinant human UGT2B7 (Homo sapiens, UniProt P16662); assay: GA glucuronidation by recombinant UGT2B7; type: in vitro ADME; conditions: UGT2B7, whole range of substrate concentrations
T3 sequence (P16662 24-529): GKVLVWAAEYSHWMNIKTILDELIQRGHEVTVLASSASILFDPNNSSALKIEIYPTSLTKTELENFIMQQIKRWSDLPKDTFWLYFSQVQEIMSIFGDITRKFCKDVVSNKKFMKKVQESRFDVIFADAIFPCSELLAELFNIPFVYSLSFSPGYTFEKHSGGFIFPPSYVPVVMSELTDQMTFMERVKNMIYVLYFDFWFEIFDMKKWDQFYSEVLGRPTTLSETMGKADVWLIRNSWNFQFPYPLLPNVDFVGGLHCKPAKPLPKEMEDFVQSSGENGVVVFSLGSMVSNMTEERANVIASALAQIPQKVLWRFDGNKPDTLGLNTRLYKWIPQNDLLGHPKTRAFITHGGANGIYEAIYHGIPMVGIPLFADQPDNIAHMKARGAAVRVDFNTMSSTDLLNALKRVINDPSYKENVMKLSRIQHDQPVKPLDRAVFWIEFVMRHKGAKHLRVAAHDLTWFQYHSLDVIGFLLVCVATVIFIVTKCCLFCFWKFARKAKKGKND

[8] = target: T4, recombinant human UGT2B15 (Homo sapiens, UniProt P54855); assay: GA glucuronidation by recombinant UGT2B15; type: in vitro ADME; conditions: UGT2B15, whole range of substrate concentrations
T4 sequence (P54855 24-530): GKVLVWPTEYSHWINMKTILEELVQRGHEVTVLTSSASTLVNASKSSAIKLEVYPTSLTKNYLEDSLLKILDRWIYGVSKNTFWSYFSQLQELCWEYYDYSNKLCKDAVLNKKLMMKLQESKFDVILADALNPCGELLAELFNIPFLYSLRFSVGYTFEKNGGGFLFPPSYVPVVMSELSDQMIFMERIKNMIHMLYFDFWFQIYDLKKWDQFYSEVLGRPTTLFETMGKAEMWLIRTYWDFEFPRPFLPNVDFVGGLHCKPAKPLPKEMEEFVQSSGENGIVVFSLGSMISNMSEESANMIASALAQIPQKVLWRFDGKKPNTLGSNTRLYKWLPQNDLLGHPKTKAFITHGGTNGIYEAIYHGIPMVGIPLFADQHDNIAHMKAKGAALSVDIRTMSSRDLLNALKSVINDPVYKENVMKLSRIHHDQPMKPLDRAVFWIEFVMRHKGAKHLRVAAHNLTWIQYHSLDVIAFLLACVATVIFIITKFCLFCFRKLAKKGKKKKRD

[9] = rats; cited from earlier work
[10] = tested on: CYP3A4; conditions: earlier study; cited from earlier work

Question: For `CC1(C)C=Cc2c(ccc3c2OC[C@@H](c2ccc(O)cc2O)C3)O1` [GA, glabridin], which KSI ([1]; RLM, M2 formation) is on record?
Answer: 7.6 ± 3.0 µM

Question: What about the Vmax ([1]; RLM, M2 formation) of the same compound?
Answer: 16 ± 5 nmol/min/mg

Question: What about the Km at 20 min ([1]; male, Sprague-Dawley, rat, liver microsomes, pH 7.4) of the same compound?
Answer: 3.9 ± 1.9 µM

Question: And the microsomal CLint ([1]; male, Sprague-Dawley, rat, pH 7.4, Clint, RLM, M2 formation)?
Answer: 4100 µL/min/mg

Question: What about the microsomal CLint ([1]; male, Sprague-Dawley, rat, pH 7.4, Clint, RLM, M2 formation (text)) of the same compound?
Answer: 4000 µL/min/mg

Question: And the microsomal CLint ([1]; male, Sprague-Dawley, rat, pH 7.4, Cltotal, RLM)?
Answer: 4100 µL/min/mg

Question: What about the KSI ([2]; RIM, M2 formation) of the same compound?
Answer: 5.3 ± 2.5 µM

Question: What about the Vmax ([2]; RIM, M2 formation) of the same compound?
Answer: 19 ± 6 nmol/min/mg

Question: What about the Km at 20 min ([2]; male, Sprague-Dawley, rat, intestinal microsomes, pH 7.4) of the same compound?
Answer: 3.8 ± 1.1 µM

Question: What about the microsomal CLint ([2]; male, Sprague-Dawley, rat, rat intestinal microsomes, pH 7.4, Cltotal, RIM) of the same compound?
Answer: 5000 µL/min/mg

Question: And the Vmax ([3]; M1 formation)?
Answer: 2.4 ± 0.5 nmol/min/mg

Question: And the Vmax ([3]; M2 formation)?
Answer: 6.2 ± 1.3 nmol/min/mg

Question: What about the microsomal CLint ([3]; pH 7.4, Clint, M1 formation) of the same compound?
Answer: 71 µL/min/mg

Question: What about the microsomal CLint ([3]; pH 7.4, Clint, M2 formation) of the same compound?
Answer: 214 µL/min/mg

Question: And the microsomal CLint ([3]; pH 7.4, Cltotal, M1 + M2)?
Answer: 285 µL/min/mg

Question: What about the Km at 30 min ([3]; M1 formation) of the same compound?
Answer: 34 ± 12 µM

Question: What about the Km at 30 min ([3]; M2 formation) of the same compound?
Answer: 29 ± 12 µM

Question: And the Vmax ([4]; M1 formation)?
Answer: 0.051 ± 0.005 nmol/min/mg

Question: What about the Vmax ([4]; M2 formation) of the same compound?
Answer: 0.51 ± 0.09 nmol/min/mg

Question: What about the Km at 60 min ([4]; M1 formation) of the same compound?
Answer: 10 ± 3 µM

Question: What about the Km at 60 min ([4]; M2 formation) of the same compound?
Answer: 35 ± 11 µM

Question: And the microsomal CLint ([5]; UGT1A1, M1 formation)?
Answer: 22 µL/min/mg

Question: And the microsomal CLint ([5]; UGT1A1, M2 formation)?
Answer: 5 µL/min/mg

Question: And the microsomal CLint [6]?
Answer: 29 µL/min/mg

Question: What about the GA glucuronidation activity [7] of the same compound?
Answer: < 0.04 nmol/min/mg

Question: And the GA glucuronidation activity [8]?
Answer: < 0.04 nmol/min/mg

Question: What about the oral availability [9] of the same compound?
Answer: about 7.5 % of the oral dose

Question: What about the “inhibition of CYP3A4” value [10] of the same compound?
Answer: mechanism-based inhibitor

— publication PMC6300978 (Chemico-biological interactions, 2015)
